Each structure is given as a SMILES string.

Holding throughout (type): functional
The species named for assay [1] is Mus musculus. In words: Inhibition of uptake of [3H]thymidine into DNA by murine smooth cells at a concentration of 80 nM after 16 hours.
For assay [2], the species on record is Mus musculus. In words: Inhibition of uptake of [3H]thymidine into DNA by murine smooth cells at a concentration of 20 nM after 20 hours.
Assay [3] is filed under the species Mus musculus. In words: Inhibition of uptake of [3H]-thymidine into DNA by murine smooth cells at a concentration of 80 nM after 20 hours.
The species named for assay [4] is Mus musculus. In words: Inhibition of uptake of [3H]thymidine into DNA by murine smooth cells at a concentration of 200 nM after 16 hours.
Assay [5] is filed under the species Mus musculus. In words: Inhibition of uptake of [3H]thymidine into DNA by murine smooth cells at a concentration of 200 nM after 20 hours.
The species named for assay [6] is Mus musculus. In words: Inhibition of uptake of [3H]thymidine into DNA by murine smooth cells at a concentration of 20 nM after 16 hours.
For assay [7], the species on record is Mus musculus. In words: Inhibition of uptake of [3H]thymidine into DNA by murine smooth cells at a concentration of 80 nM after 24 hours.
The species entered for assay [8] is Mus musculus. In words: Inhibition of uptake of [3H]thymidine into DNA by murine smooth cells at a concentration of 20 nM after 24 hours.
The species named for assay [9] is Mus musculus. In words: Inhibition of uptake of [3H]thymidine into DNA by murine smooth cells at a concentration of 200 nM after 24 hours.

For `Cc1cc(O)c2c(c1)C[C@@H](O)C1=C2C(=O)c2c(O)ccc(O[C@H]3C[C@@H](O)[C@H](O[C@H]4C[C@@H](O[C@H]5CC[C@H](O[C@H]6C[C@@H](O)[C@H](O[C@H]7C[C@@H](O[C@H]8CC[C@H](O)[C@H](C)O8)[C@H](O)[C@@H](C)O7)[C@@H](C)O6)[C@H](C)O5)[C@H](O)[C@@H](C)O4)[C@@H](C)O3)c2C1=O` [LANDOMYCIN A], the Inhibition came to 5000 c.p.m./Abs in the assay filed under Mus musculus [1]; 45000 c.p.m./Abs in the assay listed under Mus musculus [2]; 30000 c.p.m./Abs in the assay listed under Mus musculus [3]; 0 c.p.m./Abs in the assay filed under Mus musculus [4]; 5000 c.p.m./Abs in the assay filed under Mus musculus [5]; 10000 c.p.m./Abs in the assay listed under Mus musculus [6]. Further, the values for the Inhibition in the assay listed under Mus musculus [7], in the assay filed under Mus musculus [8] and in the assay listed under Mus musculus [9] were 60000 c.p.m./Abs, 65000 c.p.m./Abs and 20000 c.p.m./Abs, respectively.

The record behind these values is ChEMBL document CHEMBL1131749, “Landomycin A inhibits DNA synthesis and G1/S cell cycle progression” (1999).
